Results published in patent publication US20260167622A1, “PAN-KRAS DEGRADING AGENT, AND PREPARATION METHOD THEREFOR AND USE THEREOF” (LEADINGTAC PHARMACEUTICAL (SHAOXING) CO., LTD., priority 2022, published 2026).
pIC50: −log10 of the molar value.

Legend:
KRAS-G12D mutant cells = conditions: background, J. Med. Chem. 2022, 65, 3923-3942; cited from earlier work
[1] = system: KRAS G12V mutant human lung squamous carcinoma cell SW900; experiment: 3D cell proliferation inhibition assay, SW900; type: cell-based; conditions: SW900, 168 h, 3D culture, 7 days, CTG
[2] = system: KRAS G12V mutant human colorectal cancer cell SW620; experiment: 3D cell proliferation inhibition assay, SW620; type: cell-based; conditions: SW-620, 168 h, 3D culture, 7 days, CTG
How it was run: (§1)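 Cells were seeded in low-adsorption 96-well plates at 5×10^2 cells/well (MKN1 at 1×10^3) with compounds at final 10000-0.026 nM, 0.2% DMSO, and grown 7 days at 37° C. CTG luminescence gave inhibition relative to DMSO and medium-only controls, and IC50 came from a log-concentration curve fit.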

[3] = biological target: T1, KRAS G12V protein in SW900 cells (Homo sapiens, UniProt P01116, G12V); experiment: KRAS degradation assay (Western Blot) in SW900 cells; type: cell-based; conditions: 24 h
T1 construct: endogenous in cells; host or cells: SW900
T1 sequence (P01116 1-188 isoform P01116-2 G12V): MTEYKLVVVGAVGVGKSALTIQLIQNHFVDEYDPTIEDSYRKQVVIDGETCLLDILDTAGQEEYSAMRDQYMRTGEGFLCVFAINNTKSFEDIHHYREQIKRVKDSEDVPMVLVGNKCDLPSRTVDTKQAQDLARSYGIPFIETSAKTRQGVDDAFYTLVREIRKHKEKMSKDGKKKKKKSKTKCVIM
How it was run: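 Degradation of KRAS measured by Western blot after 24 h exposure to compound (0.03–3000 nM final). Values are DC50 and Dmax.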

[4] = system: KRAS G12D mutant human metastatic pancreatic cancer cell AsPc-1; experiment: 3D cell proliferation inhibition assay, AsPc-1; type: cell-based; conditions: ASPC1, 168 h, 3D culture, 7 days, CTG
How it was run: as §1

Human KRAS G12V = biological target: T2, Human KRAS G12V (Homo sapiens, UniProt P01116, G12V); experiment: KRAS-G12V/GTP binding assay (HTRF kit); conditions: 25° C., 1 h
T2 construct: purchased PerkinElmer
T2 sequence (P01116 1-188 isoform P01116-2 G12V): as above
Protocol: Test Example 2: KRAS G12V Binding Assay
In this method, the inhibitory effects of the compounds on the binding of KRAS G12V to GTP were assayed by a homogeneous time-resolved fluorescence (HTRF) technique using a KRAS-G12V/GTP binding assay kit (PerkinElmer).
The experimental procedures were as follows (refer to the kit instructions for detailed test methods): the compounds of the present disclosure were each firstly dissolved in DMSO at a concentration of 20 mM, and then diluted in an equal gradient with a buffer in the kit, so that the final concentrations of the test compounds in the reaction system were in a range of 0.02-5000 nM, and the final concentration of DMSO was 0.5%. 5 μL of each compound was incubated with 5 μL of 1× Human KRAS G12V 6His-tagged (PerkinElmer), 5 µL of 1×6His Eu Cryptate Antibody (PerkinElmer), and 5 μL of 1×GTP Red reagent (PerkinElmer) in a 384-well plate (Greiner) at 25° C. for 1 h. After the incubation was completed, the fluorescence intensity of each well was measured at the excitation wavelength of 337 nm and the emission wavelengths of 620 nm and 665 nm with an EnVision microplate reader (PerkinElmer) in the HTRF mode, and Ratio values were calculated using the formula: Ratio=(665 nm/620 nm)×10^4. The inhibition rates of the compounds at each concentration were calculated by comparing the fluorescence intensity ratio with that of the control group. Then non-linear curve fittings for logarithmic concentration-inhibition rate were performed using the GraphPad Prism 8 analysis software, and the IC50 values of the compounds were obtained (Table 3).

[5] = system: KRAS WT human gastric cancer cell MKN1; experiment: 3D cell proliferation inhibition assay, MKN1; type: cell-based; conditions: MKN-1, 168 h, 3D culture, 7 days, CTG
How it was run: as §1

SMILES	DC50 [3]	Dmax [3]	pIC50 (Human KRAS G12V)	also measured
C#Cc1c(F)ccc2cc(O)cc(-c3ncc4c(N5CC6CCC(C5)N6)nc(OC[C@@]56CCCN5C[C@H](F)C6)nc4c3F)c12 [MRTX1133]				specificity for KRAS-G12D mutant cells over wild-type tumor cells (KRAS-G12D mutant cells): more than 1000 times
C#Cc1cccc2cc(O)cc(-c3ncc4c(N5CCC[C@@](C)(O)C5)nc(OCC5(CN6CCN(CC7CCC8(CC7)CCN(C(=O)c7ccc(OC)c(N9CCC(=O)NC9=O)c7)CC8)CC6)CC5)nc4c3F)c12 [Example 29, (R)-1-(5-(9-((4-((1-(((7-(8-ethynyl-3-hydroxynaphthalen-1-yl)-8-fluoro-4-(3-hydroxy-3-methylpiperidin-1-yl)pyrido[4,3-d]pyrimidin-2-yl)oxy)methyl)cyclopropyl)methyl)piperazin-1-yl)methyl)-3-azaspiro[5.5]undecane-3-carbonyl)-2-methoxyphenyl)dihydropyrimidine-2,4(1H,3H)-dione]	≤ 50 nM	80 to 100%	≥ 6.30	pIC50 [1]: ≥ 7.30; pIC50 [2]: 8.35; pIC50 [4]: ≥ 7.30; pIC50 [5]: ≥ 7.30
C#Cc1c(F)ccc2cc(O)cc(-c3ncc4c(N5CCC[C@@](C)(O)C5)nc(OCC5(CN6CCC7(CC6)CCN(C(=O)c6ccc(Cl)c(N8CCC(=O)NC8=O)c6)CC7)CC5)nc4c3F)c12 [Example 16, (R)-1-(2-chloro-5-(9-((1-(((7-(8-ethynyl-7-fluoro-3-hydroxynaphthalen-1-yl)-8-fluoro-4-(3-hydroxy-3-methylpiperidin-1-yl)pyrido[4,3-d]pyrimidin-2-yl)oxy)methyl)cyclopropyl)methyl)-3,9-diazaspiro[5.5]undecane-3-carbonyl)phenyl)dihydropyrimidine-2,4(1H,3H)-dione]			≥ 6.30	
C#Cc1c(F)ccc2cc(O)cc(-c3ncc4c(N(C)C5CC5)nc(OCC5(CN6CCN(CC7CCC8(CC7)CCN(C(=O)c7ccc(OC)c(N9CCC(=O)NC9=O)c7)CC8)CC6)CC5)nc4c3F)c12 [Example 30, 1-(5-(9-((4-((1-(((4-(cyclopropyl(methyl)amino)-7-(8-ethynyl-7-fluoro-3-hydroxynaphthalen-1-yl)-8-fluoropyrido[4,3-d]pyrimidin-2-yl)oxy)methyl)cyclopropyl)methyl)piperazin-1-yl)methyl)-3-azaspiroundecane-3-carbonyl)-2-methoxyphenyl)dihydropyrimidine-2,4(1H,3H)-dione]	≤ 50 nM	50 to 80%	6.00 to 6.30	
C#Cc1c(F)ccc2cc(O)cc(-c3ncc4c(N5CCC[C@@](C)(O)C5)nc(OCC5(CN6CCN(C(=O)c7ccc(Cl)c(N8CCC(=O)NC8=O)c7)CC6)CC5)nc4c3F)c12 [Example 15, (R)-1-(2-chloro-5-(4-((1-(((7-(8-ethynyl-7-fluoro-3-hydroxynaphthalen-1-yl)-8-fluoro-4-(3-hydroxy-3-methylpiperidin-1-yl)pyrido[4,3-d]pyrimidin-2-yl)oxy)methyl)cyclopropyl)methyl)piperazine-1-carbonyl)phenyl)dihydropyrimidine-2,4(1H,3H)-dione]			≥ 6.30	
Cc1ccc(C(=O)N2CCC3(CCC(CN4CCN(CC5(COc6nc(N7CCC[C@@](C)(O)C7)c7cnc(-c8cc(O)cc(Cl)c8C8CC8)c(F)c7n6)CC5)CC4)CC3)CC2)cc1N1CCC(=O)NC1=O [Example 40, (R)-1-(5-(9-((4-((1-(((7-(3-chloro-2-cyclopropyl-5-hydroxyphenyl)-8-fluoro-4-(3-hydroxy-3-methylpiperidin-1-yl)pyrido[4,3-d]pyrimidin-2-yl)oxy)methyl)cyclopropyl)methyl)piperazin-1-yl)methyl)-3-azaspiro[5.5]undecane-3-carbonyl)-2-methylphenyl)dihydropyrimidine-2,4(1H,3H)-dione]	≤ 50 nM	80 to 100%	6.00 to 6.30	
C#Cc1c(F)ccc2cc(O)cc(-c3ncc4c(N5CCC[C@@](C)(O)C5)nc(OCC56CC(CN7CCN(CC8CCC9(CC8)CCN(C(=O)c8ccc(C)c(N%10CCC(=O)NC%10=O)c8)CC9)CC7)(C5)C6)nc4c3F)c12 [Example 14, (R)-1-(5-(9-((4-((3-(((7-(8-ethynyl-7-fluoro-3-hydroxynaphthalen-1-yl)-8-fluoro-4-(3-hydroxy-3-methylpiperidin-1-yl)pyrido[4,3-d]pyrimidin-2-yl)oxy)methyl)bicyclo[1.1.1]pent-1-yl)methyl)piperazin-1-yl)methyl)-3-azaspiro[5.5]undecane-3-carbonyl)-2-methylphenyl)dihydropyrimidine-2,4(1H,3H)-dione]	≤ 50 nM	50 to 80%	≥ 6.30	
